For 22 compounds, IC50 and Ki results are on record in ChEMBL document CHEMBL1909046, “DrugMatrix in vitro pharmacology data”.

In test [1] the target is Insulin receptor (Rattus norvegicus, UniProt P15127). It counts as cell membranes, Wistar, Liver, Membrane. Also: in other assays of this panel Not Active means under 50% inhibition at 10 µM.
For test [2], the target named is T1, Neutrophil elastase (Homo sapiens, UniProt P08246).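 Also: inhibition of neutrophil elastase enzyme activity, measured with a p-nitroanilide-linked peptide substrate; in other assays of this panel Not Active means under 50% inhibition at 10 µM.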
T1 sequence (P08246 whole entry): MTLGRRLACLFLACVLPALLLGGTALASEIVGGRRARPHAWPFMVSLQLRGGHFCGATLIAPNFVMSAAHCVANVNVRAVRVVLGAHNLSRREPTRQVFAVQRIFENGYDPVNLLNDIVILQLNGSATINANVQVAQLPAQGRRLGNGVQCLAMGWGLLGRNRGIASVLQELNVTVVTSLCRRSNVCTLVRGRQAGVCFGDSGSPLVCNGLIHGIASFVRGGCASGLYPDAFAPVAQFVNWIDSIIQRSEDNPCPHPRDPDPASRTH
It counts as tissue-based.

The target of test [3] is Adenosine receptor A2a (Homo sapiens, UniProt P29274). Kind of test: DRUGMATRIX: Adenosine A2A radioligand binding (ligand: […]). It is filed as cell membranes, HEK293, Membrane. The conditions noted are these: Not Active = under 50% inhibition at 10 µM.
The target of test [4] is T2, Alpha-2A adrenergic receptor (Homo sapiens, UniProt P08913). Also: in other assays of this panel Not Active means under 50% inhibition at 10 µM.
T2 sequence (P08913 whole entry): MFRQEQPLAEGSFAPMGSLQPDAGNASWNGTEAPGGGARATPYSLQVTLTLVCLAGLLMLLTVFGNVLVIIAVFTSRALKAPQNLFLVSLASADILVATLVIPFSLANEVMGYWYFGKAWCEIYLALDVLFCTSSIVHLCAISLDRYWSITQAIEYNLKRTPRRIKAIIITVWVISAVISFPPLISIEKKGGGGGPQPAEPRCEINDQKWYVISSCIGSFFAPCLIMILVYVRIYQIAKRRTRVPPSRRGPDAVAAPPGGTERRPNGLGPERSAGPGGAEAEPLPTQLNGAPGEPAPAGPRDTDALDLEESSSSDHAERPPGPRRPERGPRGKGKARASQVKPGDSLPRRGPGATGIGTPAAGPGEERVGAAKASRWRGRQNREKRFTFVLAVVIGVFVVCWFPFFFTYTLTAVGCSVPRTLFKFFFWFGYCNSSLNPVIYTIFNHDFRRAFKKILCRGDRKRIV
It is filed as cell membranes, Sf9, Membrane. The conditions noted are these: for Ki: read-out: Ki.

A short description of test [5]: DRUGMATRIX: beta-Lactamase enzyme inhibition (substrate: Nitrocefin). The conditions noted are these: Not Active = under 50% inhibition at 10 µM. Also noted: species or system Bacillus cereus.
Test [6] has as its target Histamine H2 receptor (Homo sapiens, UniProt P25021). It is filed as cell membranes, CHO-K1, Membrane. The conditions noted are these: cho-k1. Also: in other assays of this panel Not Active means under 50% inhibition at 10 µM.

For orientation: IC50 means the concentration at which inhibition is half-maximal. One may read the Ki as a measure of affinity in units of concentration, obtained from inhibition or displacement.

Histamine H2 receptor, sequence (P25021 whole entry): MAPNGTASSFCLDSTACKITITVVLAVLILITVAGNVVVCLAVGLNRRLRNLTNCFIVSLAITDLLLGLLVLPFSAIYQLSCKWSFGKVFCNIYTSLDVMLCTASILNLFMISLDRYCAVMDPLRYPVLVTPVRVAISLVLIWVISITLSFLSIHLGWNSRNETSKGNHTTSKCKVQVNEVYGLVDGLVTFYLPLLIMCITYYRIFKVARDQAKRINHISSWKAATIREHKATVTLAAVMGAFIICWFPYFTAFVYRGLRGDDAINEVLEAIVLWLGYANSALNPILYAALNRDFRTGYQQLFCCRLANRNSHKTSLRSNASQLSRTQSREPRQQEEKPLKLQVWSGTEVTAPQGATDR
Adenosine receptor A2a, sequence (P29274 whole entry): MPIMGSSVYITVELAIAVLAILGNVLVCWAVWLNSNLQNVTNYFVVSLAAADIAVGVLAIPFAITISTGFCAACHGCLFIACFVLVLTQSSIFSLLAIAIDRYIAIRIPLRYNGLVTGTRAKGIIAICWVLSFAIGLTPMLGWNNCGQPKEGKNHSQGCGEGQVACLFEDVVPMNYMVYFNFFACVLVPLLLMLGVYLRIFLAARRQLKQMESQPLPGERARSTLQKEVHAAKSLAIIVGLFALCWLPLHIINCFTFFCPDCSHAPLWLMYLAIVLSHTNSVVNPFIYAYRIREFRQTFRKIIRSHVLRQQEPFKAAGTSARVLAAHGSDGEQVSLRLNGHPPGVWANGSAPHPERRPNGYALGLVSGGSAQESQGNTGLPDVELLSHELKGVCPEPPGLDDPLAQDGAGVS
Insulin receptor, sequence (P15127 27-759 limits assumed): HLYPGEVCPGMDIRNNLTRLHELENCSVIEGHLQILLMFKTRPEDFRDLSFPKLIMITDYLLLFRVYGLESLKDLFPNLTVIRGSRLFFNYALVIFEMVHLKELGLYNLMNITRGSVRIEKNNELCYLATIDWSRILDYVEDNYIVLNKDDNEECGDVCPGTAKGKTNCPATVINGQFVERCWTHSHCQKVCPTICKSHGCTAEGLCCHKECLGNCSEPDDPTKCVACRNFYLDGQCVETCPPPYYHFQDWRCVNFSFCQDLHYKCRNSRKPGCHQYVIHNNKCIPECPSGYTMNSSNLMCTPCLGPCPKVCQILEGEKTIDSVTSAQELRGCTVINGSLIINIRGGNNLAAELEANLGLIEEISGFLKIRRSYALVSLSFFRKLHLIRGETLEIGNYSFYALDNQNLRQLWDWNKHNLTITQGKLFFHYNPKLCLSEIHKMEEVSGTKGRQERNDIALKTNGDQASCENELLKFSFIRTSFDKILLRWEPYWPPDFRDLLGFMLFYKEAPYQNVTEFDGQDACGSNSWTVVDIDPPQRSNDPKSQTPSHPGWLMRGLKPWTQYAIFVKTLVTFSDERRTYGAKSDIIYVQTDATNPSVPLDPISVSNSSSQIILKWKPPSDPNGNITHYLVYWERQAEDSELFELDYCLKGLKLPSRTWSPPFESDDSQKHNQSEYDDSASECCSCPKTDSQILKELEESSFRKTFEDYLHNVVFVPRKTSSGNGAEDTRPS
Insulin receptor, sequence (P15127 764-1383 limits assumed): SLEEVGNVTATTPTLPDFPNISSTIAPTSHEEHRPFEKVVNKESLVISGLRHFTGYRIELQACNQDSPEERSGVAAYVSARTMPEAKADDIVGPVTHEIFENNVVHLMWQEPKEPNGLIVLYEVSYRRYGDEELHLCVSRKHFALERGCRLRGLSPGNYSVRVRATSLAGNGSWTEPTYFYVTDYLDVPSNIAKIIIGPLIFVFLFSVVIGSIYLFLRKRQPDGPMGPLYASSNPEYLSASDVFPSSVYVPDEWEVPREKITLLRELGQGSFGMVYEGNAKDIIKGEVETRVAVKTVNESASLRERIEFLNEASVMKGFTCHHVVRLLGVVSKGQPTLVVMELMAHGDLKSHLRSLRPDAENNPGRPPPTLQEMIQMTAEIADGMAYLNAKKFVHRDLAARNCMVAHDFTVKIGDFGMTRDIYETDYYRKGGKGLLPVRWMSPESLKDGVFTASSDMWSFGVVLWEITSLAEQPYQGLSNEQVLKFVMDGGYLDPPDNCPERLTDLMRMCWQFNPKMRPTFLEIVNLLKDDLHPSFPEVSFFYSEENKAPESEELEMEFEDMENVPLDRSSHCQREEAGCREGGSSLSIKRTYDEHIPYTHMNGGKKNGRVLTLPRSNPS

Regarding `C[C@@H]1CC[C@@]2(OC1)O[C@H]1[C@@H](O)[C@H]3[C@@H]4CC[C@H]5C[C@@H](O[C@@H]6O[C@H](CO)[C@H](O[C@@H]7O[C@H](CO)C(O)[C@H](O[C@@H]8OC[C@@H](O)[C@H](O)[C@H]8O)[C@H]7O[C@@H]7O[C@H](CO)[C@H](O)[C@H](O[C@@H]8O[C@H](CO)[C@@H](O)[C@H](O)[C@H]8O)[C@H]7O)[C@H](O)[C@H]6O)[C@H](O)C[C@]5(C)[C@H]4CC[C@]3(C)[C@H]1[C@@H]2C` (stereo partly drawn) [DIGITONIN], the IC50 entry in test [1], in test [2], in test [3] (hek293), in test [4] (sf9), in test [5] and in test [6] was “Not Active” throughout. For the same compound, in test [5], the Ki entry is listed as “Not Active”.

Consider `OC(CCCN1CCCCC1)(c1ccccc1)c1ccccc1` [DIPHENIDOL], for which the IC50 entry in test [1], in test [2], in test [3] (hek293), in test [4] (sf9), in test [5] and in test [6] was “Not Active” each time. Besides, the Ki result in test [5] is recorded as “Not Active”.

On to `C[C@H]1O[C@@H](n2cc(F)c(=O)[nH]c2=O)[C@H](O)[C@@H]1O` [DOXIFLURIDINE], for which the IC50 result in test [1], in test [2], in test [3] (hek293), in test [4] (sf9), in test [5] and in test [6] was “Not Active” throughout. In addition, the inhibition constant (Ki) result in test [5] is “Not Active”.

In the case of `Cn1c(=O)c2c(ncn2CC(O)CO)n(C)c1=O` (stereo not drawn) [DYPHYLLINE], the IC50 result in test [1], in test [2], in test [3] (hek293), in test [4] (sf9), in test [5] and in test [6] was “Not Active” each time. In test [5], the Ki result is given as “Not Active”.

As to `CC[C@H]1CN2CCc3cc(OC)c(OC)cc3[C@@H]2C[C@@H]1C[C@H]1NCCc2cc(OC)c(OC)cc21` [EMETINE], the IC50 result was “Not Active” in test [1]; “Not Active” in test [2]; “Not Active” in test [3] (hek293); 38 nM in test [4] (read-out: IC50); “Not Active” in test [5]; “Not Active” in test [6]. For the same compound, the Ki in test [4] was 14 nM; in test [5] it was “Not Active”.

In the case of `C[C@@H](CO)NC(=O)[C@@H]1C=C2c3cccc4[nH]cc(c34)C[C@H]2N(C)C1` [ERGONOVINE], the IC50 entry in test [1] is “Not Active”; in test [2], “Not Active”; in test [3] (hek293) it was “Not Active”; in test [4] (read-out: IC50), 1680 nM; in test [5], “Not Active”; in test [6], “Not Active”. For the same compound, the results for the Ki in test [4] and in test [5] were 630 nM and “Not Active”, respectively.

Regarding `COC(=O)CCc1ccc(OCC(O)CNC(C)C)cc1` (stereo not drawn) [ESMOLOL], the IC50 entry in test [1], in test [2], in test [3] (hek293), in test [4] (sf9), in test [5] and in test [6] was “Not Active” throughout. The Ki entry in test [5] is “Not Active”.

`CCC1(C)CC(=O)NC1=O` (stereo not drawn) [ETHOSUXIMIDE]: the IC50 result in test [1], in test [2], in test [3] (hek293), in test [4] (sf9), in test [5] and in test [6] was “Not Active” each time. Moreover, in test [5], the Ki entry is on record as “Not Active”.

`C#C[C@]1(OC(C)=O)CC[C@H]2[C@@H]3CCC4=C[C@@H](OC(C)=O)CC[C@@H]4[C@H]3CC[C@@]21C` [ETHYNODIOL DIACETATE]: the IC50 result in test [1], in test [2], in test [3] (hek293), in test [4] (sf9), in test [5] and in test [6] was “Not Active” in each case. The Ki entry in test [5] is reported as “Not Active”.

Regarding `COc1cc([C@@H]2c3cc4c(cc3[C@@H](O[C@@H]3O[C@@H]5CO[C@@H](C)O[C@H]5[C@H](O)[C@H]3O)[C@H]3COC(=O)[C@H]23)OCO4)cc(OC)c1O` [ETOPOSIDE], the IC50 entry in test [1], in test [2], in test [3] (hek293), in test [4] (sf9), in test [5] and in test [6] was “Not Active” throughout. Further, the Ki entry in test [5] was “Not Active”.

`C=CCc1ccc(O)c(OC)c1` [EUGENOL]: the IC50 result in test [1], in test [2], in test [3] (hek293), in test [4] (sf9), in test [5] and in test [6] was “Not Active” throughout. Moreover, the inhibitory constant (Ki) entry in test [5] is on record as “Not Active”.

In the case of `CC(C(=O)O)c1cccc(Oc2ccccc2)c1` (stereo not drawn) [FENOPROFEN], the IC50 entry in test [1], in test [2], in test [3] (hek293), in test [4] (sf9), in test [5] and in test [6] was “Not Active” in each case. Moreover, the Ki entry in test [5] is reported as “Not Active”.

As to `CC(C)(C)NC(=O)[C@H]1CC[C@H]2[C@@H]3CC[C@H]4NC(=O)C=C[C@]4(C)[C@H]3CC[C@]12C` [FINASTERIDE], the IC50 entry in test [1], in test [2], in test [3] (hek293), in test [4] (sf9), in test [5] and in test [6] was “Not Active” throughout. For the same compound, the Ki entry in test [5] is given as “Not Active”.

In the case of `COc1ccc2c3c1O[C@H]1C[C@@H](O)C=C[C@@]31CCN(C)C2` [GALANTAMINE], the IC50 result in test [1], in test [2], in test [3] (hek293), in test [4] (sf9), in test [5] and in test [6] was “Not Active” in each case. The Ki entry in test [5] is given as “Not Active”.

Turning to `Nc1ccn([C@@H]2O[C@H](CO)[C@@H](O)C2(F)F)c(=O)n1` [GEMCITABINE], the IC50 result in test [1], in test [2], in test [3] (hek293), in test [4] (sf9), in test [5] and in test [6] was “Not Active” throughout. Besides, the Ki entry in test [5] is listed as “Not Active”.

For `CC(C)=CCC/C(C)=C/CO` [GERANIOL], the IC50 result in test [1], in test [2], in test [3] (hek293), in test [4] (sf9), in test [5] and in test [6] was “Not Active” in each case. Also, the Ki entry in test [5] is reported as “Not Active”.

Take `Oc1c(Cl)cc(Cl)c(Cl)c1Cc1c(O)c(Cl)cc(Cl)c1Cl` [HEXACHLOROPHENE]: the IC50 entry in test [1] is “Not Active”; in test [2], “Not Active”; in test [3] (read-out: IC50), 1610 nM; in test [4] (read-out: IC50), 5500 nM; in test [5] it was “Not Active”; in test [6] it was “Not Active”. The Ki is 906 nM in test [3] (read-out: Ki), 2060 nM in test [4] and “Not Active” in test [5].

`NNc1nncc2ccccc12` [HYDRALAZINE]: the IC50 result in test [1], in test [2], in test [3] (hek293), in test [4] (sf9), in test [5] and in test [6] was “Not Active” each time. In addition, in test [5], the Ki entry is “Not Active”.

In the case of `CC(=O)[C@@]1(O)CC[C@H]2[C@@H]3CCC4=CC(=O)CC[C@]4(C)[C@H]3CC[C@@]21C` [HYDROXYPROGESTERONE], the IC50 result in test [1], in test [2], in test [3] (hek293), in test [4] (sf9), in test [5] and in test [6] was “Not Active” each time. The Ki entry in test [5] is given as “Not Active”.

Take `COC1=C(OC)C(=O)C(CCCCCCCCCCO)=C(C)C1=O` [IDEBENONE]: the IC50 entry in test [1], in test [2], in test [3] (hek293), in test [4] (sf9), in test [5] and in test [6] was “Not Active” throughout. Moreover, in test [5], the inhibitory constant (Ki) result was “Not Active”.

As to `CC(C)NNC(=O)c1ccncc1` [IPRONIAZID], the IC50 result in test [1], in test [2], in test [3] (hek293), in test [4] (sf9), in test [5] and in test [6] was “Not Active” each time. In addition, in test [5], the Ki entry was “Not Active”.

As for `Cc1c(OCC(F)(F)F)ccnc1C[S+]([O-])c1nc2ccccc2[nH]1` (stereo not drawn) [LANSOPRAZOLE], the IC50 result in test [1], in test [2], in test [3] (hek293), in test [4] (sf9), in test [5] and in test [6] was “Not Active” each time. Moreover, the Ki result in test [5] is recorded as “Not Active”.
